# Assay results as given in ChEMBL document CHEMBL1157890, “Bioactivity-guided isolation of mosquitocidal constituents from the rhizomes of Plumbago capensis Thunb” (2010).
# The source made the active and inactive calls. The rule behind the calls is not given here.
# Columns and labels:
# Aedes aegypti [1] = experiment: Larvicidal activity against Aedes aegypti fourth instar larvae after 24 hrs; assay type: functional; details: for LC50: Aedes aegypti, 24 h
# Aedes aegypti [2] = experiment: Larvicidal activity against Aedes aegypti fourth instar larvae at 20 ug/ml after 24 hrs; assay type: functional
# Aedes aegypti [3] = experiment: Larvicidal activity against Aedes aegypti fourth instar larvae at 60 ug/ml after 24 hrs; assay type: functional, organism-based
# Aedes aegypti [4] = experiment: Larvicidal activity against Aedes aegypti fourth instar larvae at 6.5 ug/ml after 24 hrs; assay type: functional
SMILES,LC90 (Aedes aegypti [1]) [µg/mL],LC50 (Aedes aegypti [1]) [µg/mL],Activity (Aedes aegypti [2]) [%],Activity (Aedes aegypti [3]),Activity (Aedes aegypti [4]) [%]
COC1=C(C)C(=O)c2cccc(O)c2C1=O,55.72,31.5,–,–,–
C[C@H]1CC(=O)c2c(O)cccc2[C@H]1O [ISOSHINANOLONE],4.1,1.26,–,–,–
CC1=CC(=O)c2c(ccc(O)c2O)C1=O,19.28,13.6,100,–,–
CC1=CC(=O)c2c(ccc(-c3cc(O)c4c(c3C)C(=O)CCC4=O)c2O)C1=O,42.72,31.2,–,–,–
CC1=CC(=O)c2c(O)ccc(-c3ccc(O)c4c3C(=O)C(C)=CC4=O)c2C1=O [MARITINONE],53.87,40.7,–,–,–
C[C@H]1C[C@H](O)c2cccc(O)c2C1=O,–,–,–,inactive,–
CC1=CC(=O)c2c(O)cccc2C1=O [PLUMBAGIN],6.56,5.43,–,–,100
CC1=CC(=O)c2c(ccc(C3=C(C)C(=O)c4cccc(O)c4C3=O)c2O)C1=O,–,–,–,inactive,–
C=C(C)[C@H]1Cc2c(ccc3c2O[C@@H]2COc4cc(OC)c(OC)cc4[C@@H]2C3=O)O1 [ROTENONE],25,6.2,–,–,–
